From patent US6656969B2, “Methods and compositions for inhibiting the proliferation of prostate cancer cells” (Mayo Foundation for Medical Education and Research, priority 2001, dated 2003)

Tests used:
hsp70 = assay: Level of hsp70; assay type: cell-based
PSA = PSA quantification in spent media (Tandem-E PSA kit); assay type: cell-based, human; conditions: LNCaP cells, 1 nM Mib, six days, normalized to cell number
Method: (§1) A human prostate cancer cell line, LNCaP (American Type Culture Collection (ATCC), Manassas, Va.), was cultured in RPMI 1640 medium (Mediatech, Herndon, Va.) supplemented with 5% fetal bovine serum (FBS) at 37° C. and 5% CO2 until reaching approximately 50-70% confluence. The media were changed to serum-free RPMI 1640 24 hrs prior to experiments being performed to deplete undesired steroids. […] Equivalent amounts of solvent were added to control cells.
(§2) For cell proliferation and PSA expression assays, LNCaP cells were seeded at 2×10^4 cells per well in 24 well plates. […] Six days after treatment, 400 μl of spent media were collected for total PSA protein measurements by the Tandem-E PSA kit (Hybritech Inc. San Diego, Calif.). An MTS assay was performed (Promega, Madison, Wis.) for measuring cell viability. Four wells per treatment were used for the above assays and it was repeated twice. PSA levels in spent media were normalized to cell number.

ARA70 = assay: Level of androgen receptor specific co-activator ARA70; assay type: cell-based
LNCaP cells = assay: Cell proliferation (MTS) assay, androgen-stimulated growth; assay type: cell-based, human; conditions: six days; for androgen-stimulated cell growth: with 1 nM mibolerone (Mib)
Method: as §1, §2

[1] = tested on: androgen-regulated genes (NKX 3.1, ODC, fkbp 51, Drg-1, PSA); assay: Northern blot of androgen-regulated genes in LNCaP cells; assay type: cell-based, human
Method: A denaturing RNA gel was run and transferred onto a nylon membrane (BioRad) according to the GeneScreen protocol (New England Nuclear). Fifteen μg of total RNA was loaded in each lane. cDNAs for PSA, ornithine decarboxylase (ODC), NKX 3.1, fkbp 51, Drg-1 and glyceraldehyde-3-phosphate dehydogenase (GAPDH) were labeled with [P^32]dCTP by random priming and used as probes. The hybridizations were performed according to the recommended protocol using ExpressHyb Hybridization Solution (Clontech, Palo Alto, Calif.). The films were autoradiographed at −70° C. overnight.

hsp90 = assay: Level of hsp90; assay type: cell-based
c-fos = assay: Level of c-fos in LNCaP cells; assay type: cell-based, human
androgen receptor = biological target: T1, androgen receptor (Homo sapiens, UniProt P10275, T878A); assay type: cell-based; conditions: LNCaP cells, 3.2 nM Mib
T1 construct: LNCaP cells express the androgen receptor; endogenous in cells; host or cells: LNCaP
T1 sequence (P10275 whole entry T878A): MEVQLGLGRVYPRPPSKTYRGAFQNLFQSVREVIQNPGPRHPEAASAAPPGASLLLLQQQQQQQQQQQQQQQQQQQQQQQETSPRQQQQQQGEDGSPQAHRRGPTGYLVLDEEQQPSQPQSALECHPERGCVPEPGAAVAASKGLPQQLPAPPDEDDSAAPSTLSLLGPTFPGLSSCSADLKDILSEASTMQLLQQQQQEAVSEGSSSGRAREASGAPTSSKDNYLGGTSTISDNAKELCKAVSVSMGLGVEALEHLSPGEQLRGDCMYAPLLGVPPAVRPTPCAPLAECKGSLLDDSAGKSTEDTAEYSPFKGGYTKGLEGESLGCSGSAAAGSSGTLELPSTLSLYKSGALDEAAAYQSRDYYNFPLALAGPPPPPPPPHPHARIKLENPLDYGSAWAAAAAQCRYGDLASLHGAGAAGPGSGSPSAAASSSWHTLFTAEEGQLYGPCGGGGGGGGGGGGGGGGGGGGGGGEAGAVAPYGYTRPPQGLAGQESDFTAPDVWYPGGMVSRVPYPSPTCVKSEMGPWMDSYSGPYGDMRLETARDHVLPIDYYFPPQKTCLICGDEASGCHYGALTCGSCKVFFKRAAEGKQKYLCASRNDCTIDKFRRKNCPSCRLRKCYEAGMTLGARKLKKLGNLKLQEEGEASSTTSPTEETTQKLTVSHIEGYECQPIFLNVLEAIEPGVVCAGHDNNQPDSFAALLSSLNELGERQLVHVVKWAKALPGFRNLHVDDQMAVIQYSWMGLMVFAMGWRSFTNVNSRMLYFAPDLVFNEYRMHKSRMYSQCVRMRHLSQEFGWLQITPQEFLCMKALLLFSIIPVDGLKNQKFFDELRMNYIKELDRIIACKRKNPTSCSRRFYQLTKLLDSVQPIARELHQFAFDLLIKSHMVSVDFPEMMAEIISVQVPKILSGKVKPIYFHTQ
Method: LNCaP or PC-3 cells were plated in 60 mm dishes. Cells were transiently transfected as described (Zhang et al., 1999, Endocrin, 140:1665-71) with either 3 copies of an hK2 ARE in a pGL3 promoter plasmid, CMV-β-gal, a human androgen receptor expression vector or a c-jun expression vector as indicated. The androgen receptor and c-jun constructs were driven by an SV40 promoter. LNCaP cells were transfected using liposome containing dimethyldioctadecyl-ammonium bromide (DDAB) (Sigma) and L-α-lecithin (Sigma) (4:10 w/w) and PC-3 cells were transfected using lipofectamine (Gibco BRL, Grand Island, N.Y.). […] Whole cell extracts were prepared according to Ren et al., (2000, Oncogene, 19:1924-32) and a luciferase assay was performed according to manufacturer's instructions (Promega). The CMV-β-galactosidase (β-gal) expression vector and the parental vector (pGL3) were included as controls in the above transfections. β-gal activity or total protein using the Bradford assay (BioRad, Hercules, Calif.) were assayed for normalization purposes. Luciferase activities were normalized to β-gal activities and presented as relative light units/mU β-gal. Each transfection was done three times and results were analyzed by the Student's t-test. A p<0.05 was accepted as the level of significance.

Structure (SMILES): CCC=CCC=CCC=CCC=CCC=CC/C=C\CCC(=O)O [DHA, cis-4,7, 10, 13, 16, 19-docosahexaenoic acid]
- levels of hsp70 (hsp70): no inhibitory effects were observed
- androgen-stimulated PSA secretion (PSA): decrease in androgen-stimulated PSA secretion
- levels of ARA70 (ARA70): no inhibitory effects were observed
- androgen-stimulated cell growth (LNCaP cells): dose-dependent statistically significant decrease in cell growth
- cell growth without androgen stimulation (LNCaP cells; without Mib): little response
- androgen-induced mRNA of NKX 3.1, ODC, fkbp 51, Drg-1 and PSA ([1]; 1 nM Mib, DHA at 150 μM or higher): greatly inhibited the androgen-induced response
- levels of hsp90 (hsp90): no inhibitory effects were observed
- levels of c-fos (c-fos): unaltered

Structure (SMILES): CCC=CCC=CCC=CCC=CC/C=C\CCCC(=O)O [EPA, cis-5,8, 11, 14, 17-eicosapentaenoic acid]
- levels of hsp70 (hsp70): no inhibitory effects were observed
- androgen-stimulated PSA secretion (PSA): required higher EPA concentrations for significant inhibition
- androgen-stimulated cell growth (LNCaP cells): decreased androgen-stimulated cell growth
- mRNA and protein levels of PSA and hK2 ([1]; summary statement): reduce both the mRNA and protein levels
- levels of hsp90 (hsp90): no inhibitory effects were observed

Structure (SMILES): C[C@@H]1CC2=CC(=O)CC[C@@H]2[C@H]2CC[C@@]3(C)[C@@H](CC[C@]3(C)O)[C@@H]21 [Mib, mibolerone]
- ARE luciferase activity, androgen alone (androgen receptor): strong androgenic induction of luciferase activity
